For data set [1] the following is noted: background art, Non-Patent Literature 4; cited from earlier work.
In data set [2] the test system is pyruvate dehydrogenase (PDH). The data set is classed as in vivo, mouse. To be noted: KIS7 2.8 mg/kg/day, DCA 56 mg/kg/day i.p., FIG. 10.
Data set [3] deals with normal cells. Briefly: Anchorage-independent growth of normal cells. The data set is classed as cell-based. To be noted: even at the order of several tens of μM.
In data set [4] the test system is HeLaS3 cells. Briefly: Soft agar colony formation assay of cancer cells HeLaS3. The data set is classed as cell-based. Particulars: at 3 μM; eight days of culture; FIG. 14. How it is done: A conventional method was employed for a soft agar colony formation assay of cancer cells HeLaS3 (C. Oneyama et. al. Genes to Cells 2008; 13: 1 to 129). The HeLaS3 cells (4×10^4) were mixed with 3 ml of soft agar medium (Dulbecco modified Eagle's medium, 10% calf serum, 0.36% agar) and poured into a well of 6 cm-cell culture plate, which was added 5 ml of the base agar medium (Dulbecco modified Eagle's medium, 10% calf serum, 0.7% agar) in advance. After eight days of culture in a carbon dioxide gas incubator at 37° C., colonies were stained with MTT (3-(4,5-dimethylthiazol-2-yl)-2,5-diphenyltetrazolium bromide).

Data set [5] concerns the target PDK4 (Homo sapiens, UniProt Q16654). The data set is described as follows: PDK4-inhibitory activity by off-chip mobility shift assay (phosphorylation of PDH E1 subunit). It is filed as biochemical. Particulars: for IC50: phosphorylation of E1 subunit of PDH, 100 μM ATP, human recombinant PDK. How it is done:
The PDK2 and PDK4-inhibitory activities were determined by measuring the phosphorylation of the E1 subunit of PDH in the presence of 100 μM ATP.
1) 5 μL of 4-fold concentrated solutions of test substances, 5 μL of 4-fold concentrated solutions of substrates (recombinant human PDH)/ATP/metal, and 10 μL of 2-fold concentrated solutions of human recombinant PDK were prepared with an assay buffer (20 mM HEPES, 0.01% Triton X-100, 2 mM DTT, pH 7.5) and then were mixed in the wells of a polypropylene 384-well plate, followed by reactions for five hours at room temperature.
2) Reactions were terminated by adding 60 μL of Termination Buffer (QuickScout Screening Assist MSA; Carna Biosciences, Inc.).
3) Peptide substrates and phosphorylated peptides in the reaction solutions were separated by LabChip3000 system (Caliper Life Science) and quantified (gel shift assay). The phosphorylation activity was assessed by product ratios (P/(P+S)) calculated from the peptide substrate peak height (S) and the phosphorylated peptide peak height (P).
4) The inhibitory percentage was calculated as follows.

Data set [6] has as its system cells cancerated by Ras. The data set is described as follows: Anchorage-independent sphere growth of cells cancerated by Ras. The data set is classed as cell-based. To be noted: at μM to 10 μM order.

A word on the IC50: it is the concentration needed to halve the response being measured.

Chain of PDK4 (Q16654 whole entry): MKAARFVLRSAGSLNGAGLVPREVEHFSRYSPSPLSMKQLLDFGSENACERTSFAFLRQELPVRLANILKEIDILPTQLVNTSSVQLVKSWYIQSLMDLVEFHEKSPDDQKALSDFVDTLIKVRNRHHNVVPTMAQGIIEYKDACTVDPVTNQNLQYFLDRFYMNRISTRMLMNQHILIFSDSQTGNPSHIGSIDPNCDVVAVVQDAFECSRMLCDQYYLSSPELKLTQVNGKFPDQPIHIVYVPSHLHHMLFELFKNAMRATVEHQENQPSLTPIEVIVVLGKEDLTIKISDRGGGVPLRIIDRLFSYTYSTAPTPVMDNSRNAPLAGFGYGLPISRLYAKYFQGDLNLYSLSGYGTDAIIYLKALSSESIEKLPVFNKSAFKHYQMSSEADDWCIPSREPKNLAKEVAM

For `O=C(O)C(Cl)Cl` [DCA, dichloroacetic acid, reference compound], in data set [1], the side effects result was “severe side effects such as neurotoxicity”. Moreover, the “PDH enzyme activity in liver tissue” value in data set [2] was “equivalent PDH activities to non-infected mice”.

Regarding `Cc1cc2c(C(C)C)c(O)c(O)c(C=O)c2c(O)c1-c1c(C)cc2c(C(C)C)c(O)c(O)c(C=O)c2c1O` [KIS7, gossypol], the “anchorage-independent growth of normal cells” value (from here on “anchorage-independent growth”) in data set [3] is listed as “did not inhibit”. The “colony formation of HeLaS3 in soft agar” value in data set [4] is “inhibited the colony formation”. Besides, the “dose inhibiting PDK4 compared with DCA and Radicicol” value in data set [5] (FIG. 4) was “far lower dose as compared with DCA and Radicicol”. In addition, the “effect on PDK4 activity (activation or inhibition)” value in data set [5] (comparison with known PDK inhibitory substances, FIG. 4) was “inhibited PDK4”. Also, in data set [5], the IC50 came to 4 µM. Also, the “anchorage-independent sphere growth of cells cancerated by Ras” value (“anchorage-independent sphere growth” for short) in data set [6] is “suppressed the anchorage-independent sphere growth”. Besides, the “PDH enzyme activity in liver tissue” value in data set [2] is “equivalent PDH activities to non-infected mice”.

`CC1(C)CCC2=C(O1)c1ccccc1C(=O)C2=O` [KIS24, β-lapachone]: in data set [4], the “colony formation of HeLaS3 in soft agar” value was “inhibited the colony formation”. In addition, in data set [5], the IC50 came out at 3 µM. Further, the “anchorage-independent sphere growth” value in data set [6] is reported as “suppressed the anchorage-independent sphere growth”.

Regarding `Cc1cc2c(C(C)C)c(O)c(O)c(/C=N/c3ccccc3C(=O)O)c2c(O)c1-c1c(C)cc2c(C(C)C)c(O)c(O)c(/C=N/c3ccccc3C(=O)O)c2c1O` [KIS28], the 50% inhibitory concentration (IC50) in data set [5] is 13.2 µM.

Consider `C[C@H]1COC2=C1C(=O)C(=O)c1c2ccc2c1CCCC2(C)C` [KIS37, cryptotanshinone], for which, in data set [3], the “anchorage-independent growth” value was “did not inhibit”. In addition, the “colony formation of HeLaS3 in soft agar” value in data set [4] is reported as “inhibited the colony formation”. The IC50 in data set [5] amounted to 11 µM. The “anchorage-independent sphere growth” value in data set [6] is listed as “suppressed the anchorage-independent sphere growth”.

Regarding `Cc1cccc2c3c(ccc12)C1=C(C(=O)C3=O)[C@@H](C)CO1` [KIS116, dihydrotanshinone I], the “anchorage-independent growth” value in data set [3] is “did not inhibit”. Also, the IC50 in data set [5] was < 4 µM. Further, the “anchorage-independent sphere growth” value in data set [6] was “suppressed the anchorage-independent sphere growth”.

Source of the values: patent US20150335610A1, “PDK4 INHIBITOR AND USE THEREOF” (priority 2012, published 2015).
